Columns and labels:
RIPK2 enzyme = target: T1, RIPK2 enzyme (Homo sapiens, UniProt O43353); test: RIPK2 inhibition (ADP-Glo Kinase Assay); format: biochemical; conditions: RIPK2 5 nM, ATP 150 μM, MBP substrate, read-out: RIPK2 IC50
T1 construct: purchased Carna 09-128
Procedure, shortened: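 Human RIPK2 (5 nM) preincubated with compound 30 min at room temperature in 50 mM HEPES pH 7.5, 10 mM MgCl2, 2 mM DTT, 1 mM EGTA, 0.01% Brij-35, 0.05% BSA; native swine MBP as substrate. ADP formed quantified by ADP-Glo luminescence; percent inhibition relative to DMSO and no-enzyme controls.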

human NOD2 signaling = test: Inhibition of human NOD2 signaling in HEK-Blue-hNOD2 cells (L18-MDP stimulated, SEAP reporter); format: cell-based; conditions: Homo sapiens, HEK-Blue hNOD2, HEK-Blue-hNOD2 cells, NOD2 ligand stimulation, SEAP reporter; read-out: hNOD2 IC50
Procedure, shortened: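 HEK-Blue-hNOD2 cells (HEK293 with NOD2 and SEAP reporter), 12500/well, treated with 10-point 3-fold compound dilutions plus L18-MDP 0.5 ng/mL final, 24 h at 37 °C. Supernatant SEAP read with QUANTI-Blue after 3 h at 620 nm; IC50 by 4-parameter fit vs DMSO±L18-MDP controls.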

[1] = system: TNF-alpha secretion in human whole blood; test: Inhibition of TNF-alpha secretion in human whole blood (IFN-gamma primed, L18-MDP stimulated); format: cell-based; conditions: Homo sapiens, 16 h, L18-MDP 100 ng/mL, read-out: Human Whole Blood TNFα IC50
Description: Materials: Assay medium consisted of RPMI 1640 medium (catalogue number: 11875119) and 10% heat inactivated FBS (Cytvia). U-PLEX Biomarker Assay (cat #K15067L-4) to detect levels of TNF-alpha was purchased from Meso Scale Discovery. Heparinized whole blood from healthy donors/volunteers was obtained through Research Blood Components, LLC.
Test compounds were prepared into a 10 mM DMSO solution and serially diluted into 9 points using a 3-fold dilution in a 96 well plate. A 10× working stock solution of recombinant human IFN-gamma (final concentration of 10 ng/mL) was prepared in assay medium and used to prepare a 10× solution of test compound. 20 μL of 10×IFN-gamma and test compound (or DMSO control) was added to a 96-well plate. 160 μL of heparinized whole blood obtained from healthy donors was dispensed into individual wells of the 96-well plate and placed on a plate shaker (150 rpm) and incubated for 60 min at 37° C. in a CO2 incubator. Subsequently, 20 μL of L18-MDP (final concentration of 100 ng/mL) was added to the appropriate wells and further incubated for 16 hours on a plate shaker (150 rpm) at 37° C. in a CO2 incubator. The final concentration of DMSO was 0.05% (v/v) in all wells. After incubation, 100 μL of DPBS was added per well, mixed by shaking at 500 rpm for 2 minutes, followed by centrifugation (400×g for 10 minutes) and collection of supernatants. TNF-alpha in supernatants was measured using MSD immunoassay (MesoScale Discovery). 4-parametric curve fit was used to determine the test compound concentration that results in 50% reduction of TNF-alpha concentration in supernatant relative to assay controls.

[2] = target: T2, RIPK2 and XIAP protein-protein interaction (Homo sapiens, UniProt O43353); test: Inhibition of the interaction of RIPK2 with XIAP (NanoBRET in HEK293T cells); format: cell-based; conditions: RIPK2 HaloTag / XIAP NanoLuc, read-out: NanoBRET Scaffolding IC50
T2 construct: the N-terminus of full-length RIPK2 was appended with the HaloTag fusion protein; expressed in transfected cells; host or cells: HEK293T
Procedure, shortened: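 HEK293T cells transiently co-transfected with HaloTag-RIPK2 (N-terminal) and XIAP-NanoLuc (C-terminal) full-length fusions, grown 24 h at 37° C. in Opti-MEM with 4% FBS. Compounds tested as 10-point 3-fold dilutions; NanoBRET ratio taken as 618 nm acceptor over 460 nm donor emission.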

T2 sequence (O43353 whole entry, the tested form may be a part): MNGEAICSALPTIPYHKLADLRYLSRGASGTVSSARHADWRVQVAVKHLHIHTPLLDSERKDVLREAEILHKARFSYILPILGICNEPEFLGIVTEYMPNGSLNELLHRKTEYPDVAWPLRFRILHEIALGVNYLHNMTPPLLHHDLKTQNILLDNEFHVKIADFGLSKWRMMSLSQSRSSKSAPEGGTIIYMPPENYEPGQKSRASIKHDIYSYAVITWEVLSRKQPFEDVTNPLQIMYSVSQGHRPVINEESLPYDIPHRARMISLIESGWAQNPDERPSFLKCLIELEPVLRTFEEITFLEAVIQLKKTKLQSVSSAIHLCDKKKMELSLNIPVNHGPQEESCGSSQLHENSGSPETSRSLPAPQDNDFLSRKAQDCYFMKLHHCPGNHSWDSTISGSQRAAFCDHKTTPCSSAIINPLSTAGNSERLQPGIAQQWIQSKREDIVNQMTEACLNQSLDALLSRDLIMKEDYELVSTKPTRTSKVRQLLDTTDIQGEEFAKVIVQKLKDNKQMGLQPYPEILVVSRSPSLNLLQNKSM
T1 sequence (O43353 1-299 limits assumed): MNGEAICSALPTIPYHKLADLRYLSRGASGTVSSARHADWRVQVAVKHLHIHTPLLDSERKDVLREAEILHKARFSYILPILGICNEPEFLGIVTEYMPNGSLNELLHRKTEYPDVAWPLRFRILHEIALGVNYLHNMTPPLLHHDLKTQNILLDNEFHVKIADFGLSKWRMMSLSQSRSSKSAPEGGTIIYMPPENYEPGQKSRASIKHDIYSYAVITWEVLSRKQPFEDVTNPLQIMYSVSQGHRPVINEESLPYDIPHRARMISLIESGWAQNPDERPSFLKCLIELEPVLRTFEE

SMILES: [2H]C([2H])([2H])NC(=O)c1ccc2nccc(Oc3ccc(CC(=O)Nc4cnn(C56CC(C5)C6)c4)cc3C)c2c1 [Compound 559, 4-(4-(2-((1-(bicyclo[1.1.1]pentan-1-yl)-1H-pyrazol-4-yl)amino)-2-oxoethyl)-2-methylphenoxy)-N-(methyl-d3)quinoline-6-carboxamide]
- IC50 (RIPK2 enzyme): < 2.5 nM
- IC50 (human NOD2 signaling): 1 nM
- IC50 [1]: 2 nM
- IC50 [2]: 95.8 nM

From patent US12624018B1, “Inhibitors of RIPK2 and medical uses thereof” (Odyssey Therapeutics, Inc., priority 2022, dated 2026)
